Measured values published in US20240400518A1, “SOS1 INHIBITOR AND USE THEREOF” (KANAPH THERAPEUTICS INC., priority 2021, published 2024).

target: T1, SOS1 (Homo sapiens, UniProt Q07889); experiment: SOS-catalyzed nucleotide exchange assay (HTRF, SOS1-mediated GTP loading of KRAS G12D); assay type: biochemical; conditions: GST-KRAS G12D, HIS-SOS1cat, IC50 class
T1 construct: adding equal amounts of HIS—SOS1cat (160 nM; Cytoskeleton, US); His (N); purchased Cytoskeleton, US
T1 sequence (Q07889 564-1049 limits assumed): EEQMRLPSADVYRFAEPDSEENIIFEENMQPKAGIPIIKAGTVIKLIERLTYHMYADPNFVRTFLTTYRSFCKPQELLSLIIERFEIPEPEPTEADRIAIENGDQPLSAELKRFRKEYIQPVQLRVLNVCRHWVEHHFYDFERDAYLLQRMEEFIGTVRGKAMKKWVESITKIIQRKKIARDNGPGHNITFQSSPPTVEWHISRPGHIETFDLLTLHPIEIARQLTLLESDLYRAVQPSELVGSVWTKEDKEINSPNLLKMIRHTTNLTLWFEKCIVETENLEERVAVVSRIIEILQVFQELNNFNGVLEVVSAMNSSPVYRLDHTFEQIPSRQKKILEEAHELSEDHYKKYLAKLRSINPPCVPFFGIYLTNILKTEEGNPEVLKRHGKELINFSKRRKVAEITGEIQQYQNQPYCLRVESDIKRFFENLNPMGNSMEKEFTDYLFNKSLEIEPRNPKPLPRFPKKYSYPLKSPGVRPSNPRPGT
Description: SOS1 activity was measured by SOS1-mediated GTP loading quantification of KRAS^G12D. GTP loaded KRAS^G12D was detected by HTRF (Homogeneous Time Resolved Fluorescence) using anti-GST terbium (Cisbio, France) as a donor and a fluorescence GTP analogue (EDA-GTP-DY-647P1, [DY-647P1 labeled 2′/3′-O-(2-aminoethyl-carbamoyl)guanosine-5′-triphosphate (Jena bioscience, Germany)]) as an acceptor.
Assay buffer was composed of 10 mM HEPES pH 7.4, 150 mM NaCl, 5 mM MgCl2, 1 mM DTT, 0.05% BSA Fraction V pH 7.0 (Sigma) and 0.0025% (v/v) Igepal (Sigma). KRAS^G12D working solution was prepared by adding equal amounts of GST-KRAS^G12D (100 nM) and anti-GST-terbium (2 nM; Cisbio, France) to the assay buffer and culturing on ice for 10 minutes. SOS1cat working solution was prepared by adding equal amounts of HIS—SOS1cat (160 nM; Cytoskeleton, US) and EDA-GTP-DY-647P1 (200 nM; Jena bioscience, Germany) to the assay buffer. Control solution was prepared by adding equal volumes of EDA-GTP-DY-647P1 and the assay buffer for normalization control to exclude GEF-independent GTP loading and background signals. In order to induce a reaction, 5 μL of the SOS1cat working solution or the control solution was injected into each well. 5 μL of a compound having various concentrations from 128 pM to 10 μM was added to wells containing the SOS1cat working solution and incubated at room temperature for 10 minutes to bind to SOS1.
10 μL of the KRAS^G12D solution was added to each well and incubated for 30 minutes at room temperature while shaking. HTRF was measured using a Thermo Varioskan (excitation 334 nm, emission 665 nm). The IC50 of each inhibitor was analyzed using Graphad Prism.

IC50 [µM]	SMILES
1 to 10	C[C@@H](NC(=O)c1ccc(=O)n(-c2ccc(-c3ccccc3)cc2)n1)c1cc(N)cc(C(F)(F)F)c1 [Example 24]
< 1	C[C@@H](NC(=O)c1ccc(=O)n(-c2cccc(-c3ccnn3C)c2)c1)c1cccc(C(F)(F)CO)c1F [Example 78, N-[(1R)-1-[3-(1,1-difluoro-2-hydroxyethyl)-2-fluorophenyl]ethyl]-1-[3-(1-methyl-1H-pyrazol-5-yl)phenyl]-6-oxo-1,6-dihydropyridine-3-carboxamide]

target: T2, KRAS^G12C::SOS1 (Homo sapiens, UniProt Q07889); experiment: KRAS G12C::SOS1 protein-protein interaction (PPI) inhibition assay (HTRF binding kit); conditions: max inhibitor concentration 3 μM, three replicates, IC50 class
T2 construct: purchased CISBIO, FRANCE 64KRASG12PEH
T2 sequence (Q07889 1-1333): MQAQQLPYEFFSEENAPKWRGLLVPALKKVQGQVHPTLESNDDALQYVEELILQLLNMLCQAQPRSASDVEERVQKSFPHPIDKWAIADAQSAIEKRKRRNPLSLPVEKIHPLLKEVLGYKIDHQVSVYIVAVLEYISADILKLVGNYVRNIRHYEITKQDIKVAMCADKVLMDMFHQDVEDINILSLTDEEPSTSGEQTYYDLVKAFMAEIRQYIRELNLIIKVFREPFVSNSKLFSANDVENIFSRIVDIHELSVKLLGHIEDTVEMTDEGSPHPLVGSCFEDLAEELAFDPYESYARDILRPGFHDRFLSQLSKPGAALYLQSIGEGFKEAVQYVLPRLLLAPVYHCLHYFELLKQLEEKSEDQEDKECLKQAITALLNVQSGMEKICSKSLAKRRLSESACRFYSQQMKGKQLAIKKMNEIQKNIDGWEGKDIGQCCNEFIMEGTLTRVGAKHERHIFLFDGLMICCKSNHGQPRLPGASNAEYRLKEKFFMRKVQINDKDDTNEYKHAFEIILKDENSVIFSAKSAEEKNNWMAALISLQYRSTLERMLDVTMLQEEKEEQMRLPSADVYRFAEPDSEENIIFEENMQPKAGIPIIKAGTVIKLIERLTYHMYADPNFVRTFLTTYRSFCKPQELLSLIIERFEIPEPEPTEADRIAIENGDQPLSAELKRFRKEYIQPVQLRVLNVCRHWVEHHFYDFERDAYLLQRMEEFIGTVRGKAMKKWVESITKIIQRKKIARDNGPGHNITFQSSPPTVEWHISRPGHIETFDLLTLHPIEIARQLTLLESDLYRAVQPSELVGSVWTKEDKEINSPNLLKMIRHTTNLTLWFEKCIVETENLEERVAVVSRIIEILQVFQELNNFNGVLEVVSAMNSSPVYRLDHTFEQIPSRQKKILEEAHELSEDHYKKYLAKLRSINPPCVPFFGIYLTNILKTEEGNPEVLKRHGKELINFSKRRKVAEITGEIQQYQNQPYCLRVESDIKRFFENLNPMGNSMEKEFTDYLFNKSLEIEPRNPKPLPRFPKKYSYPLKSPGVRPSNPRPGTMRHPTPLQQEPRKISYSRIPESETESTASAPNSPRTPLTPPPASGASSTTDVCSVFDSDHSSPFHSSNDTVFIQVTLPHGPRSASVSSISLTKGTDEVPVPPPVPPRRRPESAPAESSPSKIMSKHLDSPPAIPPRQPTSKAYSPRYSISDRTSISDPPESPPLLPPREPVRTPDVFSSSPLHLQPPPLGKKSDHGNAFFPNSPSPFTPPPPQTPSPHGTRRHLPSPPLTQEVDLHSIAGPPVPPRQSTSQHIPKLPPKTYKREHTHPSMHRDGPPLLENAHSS
Description: Protein-protein interaction between SOS1 and KRAS^G12C was detected using KRAS G12C/SOS1 binding kit from CISBIO (64KRASG12PEH, CISBIO, FRANCE) according to the manufacturer's assay method. Briefly, the maximum concentration of an inhibitor sample was set to be 3 μM, and the inhibitor sample was diluted 7 times by 1/3, and samples having a total of 8 concentrations were prepared. In HTRF (Homogeneous Time-Resolved Fluorescence) exclusive 96-well low-volume white plate (66PL96005, CISBIO, FRANCE), 2 μL of an inhibitor sample prepared for each concentration, 5 μL of a mixed solution of Tag1 labeled KRAS^G12C protein and GTP diluted with the dilution solution provided by the manufacturer, and 5 μL of Tag2 labeled SOS1 protein were mixed, and added with 8 μL of a diluted solution where anti-Tag1 KRAS^G12CXL665 (HTRF acceptor) labeled antibody and anti-Tag2 SOS1 Terbium cryptate (HTRF donor) labeled antibody were mixed in an equal ratio and cultured at room temperature for 2 hours.

IC50 [µM]	SMILES
< 1	C[C@@H](NC(=O)c1ccc(=O)n(-c2cccc(C(C)(C)O)c2)n1)c1cc(N)cc(C(F)(F)F)c1 [Example 171]
< 1	C[C@@H](NC(=O)c1ccc(=O)n(-c2ccncc2F)n1)c1cc(N)cc(C(F)(F)F)c1 [Example 191]
1 to 10	C[C@@H](NC(=O)c1ccc(=O)n(-c2cccc(-c3ccccc3)c2)n1)c1cc(N)cc(C(F)(F)F)c1 [Example 212]
< 1	C[C@@H](NC(=O)c1ccc(=O)n(-c2cccc(-c3cnoc3)c2)n1)c1cc(N)cc(C(F)(F)F)c1 [Example 322, N-[(1R)-1-[3-amino-5-(trifluoromethyl)phenyl]ethyl]-1-(3-isoxazol-4-ylphenyl)-6-oxo-pyridazine-3-carboxamide]
< 1	C[C@@H](NC(=O)c1ccc(=O)n(-c2cc(-c3cnnn3C)ccc2F)n1)c1cc(N)cc(C(F)(F)F)c1 [Example 371, N-[(1R)-1-[3-amino-5-(trifluoromethyl)phenyl]ethyl]-1-[2-fluoro-5-(3-methyltriazol-4-yl)phenyl]-6-oxo-pyridazine-3-carboxamide]
< 1	Cc1cnnn1-c1cccc(-n2nc(C(=O)N[C@H](C)c3cc(N)cc(C(F)(F)F)c3)ccc2=O)c1 [Example 378, N-[(1R)-1-[3-amino-5-(trifluoromethyl)phenyl]ethyl]-1-[3-(5-methyltriazol-1-yl)phenyl]-6-oxo-pyridazine-3-carboxamide]
< 1	C[C@@H](NC(=O)c1ccc(=O)n(-c2ccc(F)c(-c3cnnn3C)c2)n1)c1cc(N)cc(C(F)(F)F)c1 [Example 389, N-[(1R)-1-[3-amino-5-(trifluoromethyl)phenyl]ethyl]-1-[4-fluoro-3-(3-methyltriazol-4-yl)phenyl]-6-oxo-pyridazine-3-carboxamide]
< 1	C[C@@H](NC(=O)c1ccc(=O)n(-c2ccc(F)c(-c3cnnn3C)c2)n1)c1cccc(C(F)(F)CO)c1F [Example 390]
< 1	C[C@@H](NC(=O)c1ccc(=O)n(-c2cc(F)cc(-c3cnnn3C)c2)n1)c1cc(N)cc(C(F)(F)F)c1 [Example 391, N-[(1R)-1-[3-amino-5-(trifluoromethyl)phenyl]ethyl]-1-[3-fluoro-5-(3-methyltriazol-4-yl)phenyl]-6-oxo-pyridazine-3-carboxamide]
< 1	C[C@@H](NC(=O)c1ccc(=O)n(-c2cncc(-c3cnnn3C)c2)n1)c1cc(N)cc(C(F)(F)F)c1 [Example 392, N-[(1R)-1-[3-amino-5-(trifluoromethyl)phenyl]ethyl]-1-[5-(3-methyltriazol-4-yl)-3-pyridyl]-6-oxo-pyridazine-3-carboxamide]

Second part, the compound before the results:

SMILES	IC50 [µM]
Cc1c([C@@H](C)NC(=O)c2ccc(=O)n(-c3ccccc3F)n2)cc(N)cc1C(F)(F)F [Example 244, N-[(1R)-1-[5-amino-2-methyl-3-(trifluoromethyl)phenyl]ethyl]-1-(2-fluorophenyl)-6-oxo-pyridazine-3-carboxamide]	< 1
C[C@@H](NC(=O)c1ccc(=O)n(-c2cccc(C(=O)O)c2)n1)c1cc(N)cc(C(F)(F)F)c1 [Example 249, 3-(3-{[(1R)-1-[3-amino-5-(trifluoromethyl)phenyl]ethyl]carbamoyl}-6-oxo-1,6-dihydropyridazin-1-yl)benzoic acid]	< 1
C[C@@H](NC(=O)c1ccc(=O)n(-c2ccccc2F)n1)c1ccc(Br)s1 [Example 265, N-[(1R)-1-(5-bromo-2-thienyl)ethyl]-1-(2-fluorophenyl)-6-oxo-pyridazine-3-carboxamide]	< 1
CNCc1ccc(Cl)cc1-c1ccc([C@@H](C)NC(=O)c2ccc(=O)n(-c3cccnc3)c2)s1 [Example 284]	< 1
C[C@@H](NC(=O)c1ccc(=O)n(-c2cccc(-c3cnnn3C)c2)n1)c1cccc(C(F)(F)CO)c1F [Example 370, N-[(1R)-1-[3-(1,1-difluoro-2-hydroxy-ethyl)-2-fluoro-phenyl]ethyl]-1-[3-(3-methyltriazol-4-yl)phenyl]-6-oxo-pyridazine-3-carboxamide]	< 1
Cc1cnnn1-c1cccc(-n2cc(C(=O)N[C@H](C)c3cc(N)cc(C(F)(F)F)c3)ccc2=O)c1 [Example 377, N-[(1R)-1-[3-amino-5-(trifluoromethyl)phenyl]ethyl]-1-[3-(5-methyltriazol-1-yl)phenyl]-6-oxo-pyridine-3-carboxamide]	< 1
[2H]C([2H])([2H])n1nncc1-c1cccc(-n2nc(C(=O)N[C@H](C)c3cccc(C(F)(F)CO)c3F)ccc2=O)c1 [Example 393, N-[(1R)-1-[3-(1,1-difluoro-2-hydroxy-ethyl)-2-fluoro-phenyl]ethyl]-6-oxo-1-[3-[3-(trideuteriomethyl)triazol-4-yl]phenyl]pyridazine-3-carboxamide]	< 1
